Data reported in patent publication US8192962B2, “Processes for detecting toxic substances” (Daikin Industries, Ltd., priority 2001, dated 2012).

Test system: Mitochondria-located protein genes
Test: DNA chip mRNA expression in yeast, mitochondria-located protein genes (Table 2)
Format: cell-based, Saccharomyces cerevisiae S288C
Conditions: cells incubated two hours with the chemical substance
How it was run: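 Values are treated/untreated fluorescence ratios from a whole-genome yeast DNA chip hybridized over 12 hours at 65° C with Cy3- or Cy5-labelled cDNA from poly(A) mRNA. Log-phase S288C yeast in YPD at 25° C had received a single toxic chemical for two hours, dosed to slow growth without killing.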

Measured: The level of expressed mRNA in the presence of chemical substance/The level of expressed mRNA in the absence of chemical substance

CCCCCCCCCCCCOS(=O)(=O)[O-].[Na+] [(18), sodium lauryl sulfate]
2.5: yeast gene YDR377W
1.1: yeast gene YAL039C | yeast gene YBL030C | yeast gene YCL057W | yeast gene YDL198C | yeast gene YEL039C | yeast gene YGR062C | yeast gene YJL102W | yeast gene YKL194C | yeast gene YKR066C | yeast gene YMR083W | yeast gene YMR089C | yeast gene YOR130C | yeast gene YPL040C | yeast gene YPL215W
1.5: yeast gene YBR122C | yeast gene YEL024W | yeast gene YGR076C | yeast gene YLR295C | yeast gene YPR047W
1.4: yeast gene YBR251W | yeast gene YDL181W | yeast gene YIL155C | yeast gene YJL180C | yeast gene YJR121W | yeast gene YKL170W | yeast gene YMR023C
1.7: yeast gene YDL067C | yeast gene YGL191W | yeast gene YKL016C | yeast gene YLL041C | yeast gene YNL055C | yeast gene YOR020C | yeast gene YPL135W | yeast gene YPR037C
0.7: yeast gene YBL022C | yeast gene YJL133W | yeast gene YLR304C | yeast gene YMR203W
1.8: yeast gene YKL141W
3.6: yeast gene YKL142W
1.3: yeast gene YBR003W | yeast gene YBR044C | yeast gene YBR185C | yeast gene YCR083W | yeast gene YDR079W | yeast gene YDR231C | yeast gene YDR258C | yeast gene YML129C | yeast gene YMR267W | yeast gene YOR150W | yeast gene YOR187W | yeast gene YPL134C
0.9: yeast gene YER178W | yeast gene YFL016C | yeast gene YJR045C | yeast gene YMR152W | yeast gene YNL104C
4.0: yeast gene YJL166W
1.0: yeast gene YBR091C | yeast gene YBR221C | yeast gene YCR046C | yeast gene YGL018C | yeast gene YHR008C | yeast gene YKL148C | yeast gene YLR259C | yeast gene YLR348C | yeast gene YNL073W | yeast gene YOR142W | yeast gene YOR316C
2.3: yeast gene YDR178W | yeast gene YDR529C | yeast gene YGR174C | yeast gene YLR395C
2.6: yeast gene YGR028W
3.1: yeast gene YGR244C
4.2: yeast gene YGR008C
1.2: yeast gene YBL099W | yeast gene YBR282W | yeast gene YDR347W | yeast gene YJL096W | yeast gene YKL003C | yeast gene YNL071W | yeast gene YOL096C | yeast gene YPL262W | yeast gene YPR134W
2.1: yeast gene YLR038C | yeast gene YOR176W
1.9: yeast gene YBL038W
2.4: yeast gene YGL187C | yeast gene YMR035W
1.6: yeast gene YDR298C | yeast gene YML054C | yeast gene YML120C | yeast gene YOR037W
0.8: yeast gene YGR082W | yeast gene YJR077C | yeast gene YOR100C | yeast gene YPR024W
0.6: yeast gene YNL256W
